Measurements as given in patent US8741659B2, “Composition for measuring the binding affinity between nucleic acid and test substance, and use thereof” (Osaka University, priority 2007, dated 2014).

Key:
[1] = tested on: double strand RNA (SEQ ID NO: 1 hybridized with SEQ ID NO: 3); experiment: Fluorescence titration experiment using double strand RNA; format: binding; conditions: 1.0 μM compound, double strand RNA 0.0-1.0 μM
Experimental: (§1) Then, changes in fluorescence intensities were observed.
(§2) Firstly, X2S, X2S(3), X2S(4), X2S(5), X2S(2-Me), and 3,6-X2S(2) were respectively mixed with cacodylate buffer solutions (sodium cacodylate: 10 mM, pH 7.0; NaCl: 100 mM) each at 1.0 μM, so that solutions of the respective compounds were obtained.
As the double strand RNA, an RNA as in FIG. 2 having N representing no base was used. Specifically, an RNA formed by hybridization of an RNA having the base sequence shown in SEQ ID NO: 1 with an RNA having the base sequence shown in SEQ ID NO: 3 was used. The RNA was added to each of the solutions of the above compositions in steps at 0.0 μM, 0.2 μM, 0.4 μM, 0.8 μM, and 1.0 μM.
Each of the solutions to which the RNAs were added was irradiated with light, and a fluorescence intensity was measured. A device used for measuring the fluorescence intensity was the same as that used in Example 13. A variation in a slit width was set to ±3.0 nm during the excitation, and to ±3.0 nm during the measurement of fluorescence.
In each of FIGS. 25 to 30, the horizontal axis represents the fluorescence wavelength, whereas the vertical axis represents the fluorescence intensity.
FIG. 31 is a graph illustrating a relationship between a concentration of the double strand RNA added and a fluorescence intensity of each compound. […]

RRE = experiment: Fluorescence titration / evaluation of binding with RRE; design: species or system HIV-1; conditions: 1.0 μM compound; for reduction of fluorescence intensity (residual fluorescence intensity) on binding RRE: RRE 0.0-1.0 μM; for difference in quenching efficiency between RRE and double strand RNA: FIGS. 41 and 42
Experimental: In this Example, binding between RRE and X2S was evaluated by a method identical to the method in Example 2.
The […] of RRE is shown in SEQ ID NO: 8. […] RRE was purchased from Hokkaido System Science Co., Ltd.
Firstly, the X2S solution obtained in Example 1 was diluted with a cacodylate buffer solution (sodium cacodylate: 10 mM, pH 7.0; NaCl: 100 mM), so that a concentration of X2S became 2 μM. To the 2-μM X2S solution thus obtained, RRE was added in steps at 0 μM, 1 μM, 2 μM, 3 μM, 4 μM, 5 μM, 6 μM, and 8 μM. Further, a fluorescence intensity of the 2-μM X2S solution was measured at each concentration. The fluorescence intensity was measured in the same manner as in Example 2.
FIG. 7 is a view illustrating a result of evaluation of binding between X2S and RRE. In FIG. 7, the horizontal axis represents the fluorescence wavelength, whereas the vertical axis represents the fluorescence intensity. […] Other figures include such arrows for results of measurements of fluorescence intensities.
FIG. 8 is a view plotting the fluorescence intensities at a measured wavelength of 453 nm shown in the result illustrated in FIG. 7. The horizontal axis represents the concentration of RRE, whereas the vertical axis represents the fluorescence intensity.
as §1
as §2, with “obtained. RRE used in this Example was the same as that used in Example 4. RRE was added to each of the solutions of the respective compounds in steps at 0.0 μM, 0.2 μM, 0.4 μM, 0.8 μM, and 1.0 μM.” for “obtained.”
Each of the solutions to which RRE was added was irradiated with light, and a fluorescence intensity was measured. A device used for measuring the fluorescence intensity was the same as that used in Example 13. A variation in a slit width was also the same as that in Example 14.
FIG. 39 is a graph illustrating a relationship between a concentration of RRE added and a fluorescence intensity of each compound. Further, FIG. 39 is also a view plotting the fluorescence intensities of the respective fluorescence peaks shown in the results illustrated in FIGS. 33 to 38. FIG. 40 is a view plotting residual fluorescence intensities (%) which were obtained based on the results shown in FIGS. 33 to 38, assuming that the fluorescence intensities of the respective fluorescence peaks observed at a concentration of 0.0 μM of RRE were 100%. In each of FIGS. 39 and 40, the horizontal axis represents the concentration of the RNA. In FIG. 39, the vertical axis represents the fluorescence intensity. In FIG. 40, the vertical axis represents the residual fluorescence intensity (%).
FIG. 41 is a view plotting values obtained by dividing (i) the residual fluorescence intensities (%) obtained in the case involving use of the double strand RNA by (ii) the residual fluorescence intensities (%) obtained in the case involving use of RRE. That is, FIG. 41 is a view plotting values obtained by dividing (i) the residual fluorescence intensity (%) shown in FIG. 32 by (ii) the residual fluorescence intensities (%) shown in FIG. 40. FIG. 42 is a view plotting values obtained by subtracting (i) the residual fluorescence intensities (%) obtained in the case involving use of RRE from (ii) the residual fluorescence intensities (%) obtained in the case involving use of the double strand RNA. That is, FIG. 42 is a view plotting values obtained by subtracting (i) the residual fluorescence intensities (%) shown in FIG. 40 from (ii) the residual fluorescence intensities (%) shown in FIG. 32.
In this Example, 1-Pyrenemethanamide, hydrochloride was caused to bind to a double strand RNA or RRE. Then, a change in a fluorescence intensity was observed. […]

Structure (SMILES) | reduction of fluorescence intensity (residual fluorescence intensity) on binding double strand RNA [1] | reduction of fluorescence intensity (residual fluorescence intensity) on binding RRE (RRE) | difference in quenching efficiency between RRE and double strand RNA (RRE)
CC(N)COc1ccc2oc3ccc(OCC(C)N)cc3c(=O)c2c1 (stereo not drawn) [X2S(3), 2,7-bis(2-aminopropoxy)xanthen-9-one] | particularly high reduction rates | particularly high reduction rates | greatest
CCC(N)COc1ccc2oc3ccc(OCC(N)CC)cc3c(=O)c2c1 (stereo not drawn) [X2S(4), 2,7-bis(2-aminobutoxy)xanthen-9-one] | particularly high reduction rates | particularly high reduction rates | greatest
